From ChEMBL document CHEMBL1275371, “Synthesis, biological evaluation, and molecular docking studies of 2-chloropyridine derivatives possessing 1,3,4-oxadiazole moiety as potential antitumor agents” (Bioorg Med Chem, 2010)
≈ marks a conversion by molar mass, not a printed value.

These molecules were tested on SGC-7901 (assay: Antiproliferative activity against human SGC7901 cells after 48 hrs by MTT assay). Conditions: SGC-7901, 48 h.
Format: functional, cell-based
For Clc1ccc(CSc2nnc(-c3ccccn3)o2)cn1, the IC50 was 12.6 µg/mL (≈ 41.3 µM). Clc1ccc(CSc2nnc(-c3ccco3)o2)cn1 was tested, and the IC50 was 14.3 µg/mL (≈ 48.7 µM). Molecule Clc1ccc(CSc2nnc(-c3cccs3)o2)cn1 has an IC50 of 15.1 µg/mL (≈ 48.7 µM). Work on Clc1ccc(CSc2nnc(-c3cccc4ccccc34)o2)cn1 yielded an IC50 of 2.56 µg/mL (≈ 7.24 µM). Cc1ccccc1-c1nnc(SCc2ccc(Cl)nc2)o1 was tested, and the IC50 was 8.51 µg/mL (≈ 26.8 µM). Cc1ccc(-c2nnc(SCc3ccc(Cl)nc3)o2)cc1 showed an IC50 of 3.62 µg/mL (≈ 11.4 µM). COc1ccccc1-c1nnc(SCc2ccc(Cl)nc2)o1 was tested, and the IC50 was 8.2 µg/mL (≈ 24.6 µM). In the case of COc1ccc(-c2nnc(SCc3ccc(Cl)nc3)o2)cc1, the IC50 is reported as 3.5 µg/mL (≈ 10.5 µM). Molecule CCOc1ccccc1-c1nnc(SCc2ccc(Cl)nc2)o1 has an IC50 of 10.3 µg/mL (≈ 29.6 µM). In the case of CCOc1ccc(-c2nnc(SCc3ccc(Cl)nc3)o2)cc1, the IC50 is reported as 4.97 µg/mL (≈ 14.3 µM). Molecule Fc1ccccc1-c1nnc(SCc2ccc(Cl)nc2)o1 has an IC50 of 9.12 µg/mL (≈ 28.3 µM). Work on Fc1ccc(-c2nnc(SCc3ccc(Cl)nc3)o2)cc1 yielded an IC50 of 3.67 µg/mL (≈ 11.4 µM). Molecule Clc1ccc(CSc2nnc(-c3ccccc3Cl)o2)cn1 has an IC50 of 13.4 µg/mL (≈ 39.8 µM). With Clc1ccc(-c2nnc(SCc3ccc(Cl)nc3)o2)cc1 the IC50 was 8.62 µg/mL (≈ 25.5 µM). For Oc1ccc(-c2nnc(SCc3ccc(Cl)nc3)o2)cc1, the IC50 was > 20 µg/mL. CC(C)c1ccc(-c2nnc(SCc3ccc(Cl)nc3)o2)cc1 was tested, and the IC50 was 4.32 µg/mL (≈ 12.5 µM). Work on Nc1ccc(-c2nnc(SCc3ccc(Cl)nc3)o2)cc1 yielded an IC50 of 8.48 µg/mL (≈ 26.6 µM). For CN(C)c1ccc(-c2nnc(SCc3ccc(Cl)nc3)o2)cc1, the IC50 was 8.9 µg/mL (≈ 25.7 µM). COc1ccc(-c2nnc(SCc3ccc(Cl)nc3)o2)c(O)c1 showed an IC50 of 1.61 µg/mL (≈ 4.6 µM). COc1ccc(-c2nnc(SCc3ccc(Cl)nc3)o2)cc1OC was tested, and the IC50 was 4.48 µg/mL (≈ 12.3 µM). Molecule COc1cc(-c2nnc(SCc3ccc(Cl)nc3)o2)cc(OC)c1OC has an IC50 of 10.2 µg/mL (≈ 25.9 µM). In the case of O=c1[nH]cc(F)c(=O)[nH]1 [FLUOROURACIL], the IC50 is reported as 7.36 µg/mL (≈ 56.6 µM).

What follows are molecules tested against Telomerase reverse transcriptase (Homo sapiens, UniProt O14746) (assay: Inhibition of telomerase in human SGC7901 cells by TRAP assay). Conditions: not given.
Chain of Telomerase reverse transcriptase (O14746 whole entry): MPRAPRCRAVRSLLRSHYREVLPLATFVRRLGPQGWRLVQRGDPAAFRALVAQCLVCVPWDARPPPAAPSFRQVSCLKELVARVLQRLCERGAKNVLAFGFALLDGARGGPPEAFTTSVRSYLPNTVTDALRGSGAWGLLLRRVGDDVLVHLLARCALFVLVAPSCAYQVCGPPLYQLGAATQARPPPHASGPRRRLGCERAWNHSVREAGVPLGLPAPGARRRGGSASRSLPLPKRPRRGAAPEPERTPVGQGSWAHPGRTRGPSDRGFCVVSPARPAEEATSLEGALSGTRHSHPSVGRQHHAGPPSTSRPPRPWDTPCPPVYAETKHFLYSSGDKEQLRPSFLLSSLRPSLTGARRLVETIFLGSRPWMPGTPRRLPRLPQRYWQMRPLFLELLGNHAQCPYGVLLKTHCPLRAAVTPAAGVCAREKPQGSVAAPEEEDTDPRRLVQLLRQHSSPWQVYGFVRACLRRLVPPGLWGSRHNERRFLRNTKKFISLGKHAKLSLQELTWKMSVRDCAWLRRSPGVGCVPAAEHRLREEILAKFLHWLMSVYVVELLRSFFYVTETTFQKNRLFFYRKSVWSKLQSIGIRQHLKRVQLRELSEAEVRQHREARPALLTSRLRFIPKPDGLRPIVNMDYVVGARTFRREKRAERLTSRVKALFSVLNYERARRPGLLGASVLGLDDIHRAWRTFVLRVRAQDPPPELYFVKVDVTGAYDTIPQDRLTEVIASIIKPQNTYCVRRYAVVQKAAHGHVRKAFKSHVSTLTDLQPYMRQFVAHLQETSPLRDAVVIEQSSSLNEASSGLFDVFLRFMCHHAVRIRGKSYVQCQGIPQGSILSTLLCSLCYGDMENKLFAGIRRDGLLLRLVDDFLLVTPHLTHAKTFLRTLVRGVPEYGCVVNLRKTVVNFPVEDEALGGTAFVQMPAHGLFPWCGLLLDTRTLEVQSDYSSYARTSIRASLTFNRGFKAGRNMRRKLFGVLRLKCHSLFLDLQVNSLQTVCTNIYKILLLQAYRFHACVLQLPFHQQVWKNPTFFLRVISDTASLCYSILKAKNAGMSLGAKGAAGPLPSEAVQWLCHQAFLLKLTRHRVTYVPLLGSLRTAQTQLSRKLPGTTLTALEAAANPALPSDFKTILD
Format: cell-based, SGC-7901
For Clc1ccc(CSc2nnc(-c3cccc4ccccc34)o2)cn1, the IC50 was 4.2 µM. Work on COc1ccc(-c2nnc(SCc3ccc(Cl)nc3)o2)c(O)c1 yielded an IC50 of 2.3 µM.
